Reference: the NIST ThermoML archive (doi:10.1021/je700022b)

Test: xn = mol fraction of the nth substance listed
Settings: Liquid; for mass density: Constant-volume piezometry

CCCCn1cc[n+](C)c1.F[P-](F)(F)(F)(F)F [1-butyl-3-methylimidazolium hexafluorophosphate] + O=C=O
Settings	mass density, 293.15 K [kg/m3]	mass density, 313.15 K [kg/m3]	mass density, 333.15 K [kg/m3]	mass density, 353.15 K [kg/m3]	viscosity, 293.15 K [mPa·s]	viscosity, 313.15 K [mPa·s]	viscosity, 333.15 K [mPa·s]	viscosity, 353.15 K [mPa·s]
10000 kPa, x2 = 0.056	1371	1350	1327	1306	372	119	49.3	25.2
10000 kPa, x2 = 0.123	1368	1342	1313	1286	277	84.8	40.6	21.6
10000 kPa, x2 = 0.229	1361	1329	1293	1260	135	54.1	27.2	15.8
10000 kPa, x2 = 0.332	1354	1313	1268	1226	89.2	36.9	20.5	12.3
10000 kPa, x2 = 0.44	1346	1288	1223	1162	43.9	24.7	16.1	10.7
15000 kPa, x2 = 0	1377	1362	1346	1330	468	140	61	29.3
15000 kPa, x2 = 0.056	1374	1356	1338	1319	397	125	51.9	26.4
15000 kPa, x2 = 0.123	1371	1351	1330	1310	287	90.1	42.8	22.6
15000 kPa, x2 = 0.229	1365	1344	1321	1299	144	55.8	28.3	16.5
15000 kPa, x2 = 0.332	1358	1337	1308	1284	91.9	39.9	21.1	12.7
15000 kPa, x2 = 0.44	1351	1323	1286	1255	45.9	24.8	16.5	10.8
20000 kPa, x2 = 0	1379	1364	1349	1332	504	151	63.2	30.5
20000 kPa, x2 = 0.056	1377	1360	1343	1325	424	132	54.5	28
20000 kPa, x2 = 0.123	1375	1356	1338	1319	310	92.4	44.2	23.4
20000 kPa, x2 = 0.229	1368	1350	1329	1310	150	61.2	29.1	16.9
20000 kPa, x2 = 0.332	1362	1342	1319	1298	100	41.6	21.7	12.8
20000 kPa, x2 = 0.44	1355	1330	1304	1278	46.8	26.8	17	10.9
